Data taken from ChEMBL document CHEMBL4840317, “Saccharochelins A-H, Cytotoxic Amphiphilic Siderophores from the Rare Marine Actinomycete Saccharothrix sp. D09” (J Nat Prod, 2021).
pIC50: −log10 of the molar value. Activity calls are given as the source filed them. The rule behind the calls is not given here.

Columns and labels:
A549 = assay: Cytotoxicity against human A549 cells assessed as reduction in cell viability by MTT assay; type: functional, cell-based
HCT-116 = assay: Cytotoxicity against human HCT-116 cells assessed as reduction in cell viability by MTT assay; type: functional, cell-based
[1] = Binding affinity to Fe3+ assessed as formation of Fe3+-compound complex at 5 to 640 uM in presence of FeCl3 incubated for 3 hrs by Chrome Azurol S assay; details: dose 5-640 µM
Pseudomonas aeruginosa = assay: Antibacterial activity against Pseudomonas aeruginosa ATCC 27853 assessed as inhibition of bacterial growth incubated for 18 hrs by Kirby-Bauer disk diffusion method; type: functional
Escherichia coli = assay: Antibacterial activity against Escherichia coli ATCC 35218 assessed as inhibition of bacterial growth incubated for 18 hrs by Kirby-Bauer disk diffusion method; type: functional
[2] = molecular target: Angiotensin-converting enzyme 2 (Homo sapiens) (UniProt Q9BYF1); assay: Inhibition of ACE2 (unknown origin) upto 100 ug/ml incubated for 15 mins followed by substrate addition by fluorescence based analysis; details: dose microg/ml <=100, time 15.0 min
Angiotensin-converting enzyme 2 (Homo sapiens), sequence (Q9BYF1 18-805 limits assumed): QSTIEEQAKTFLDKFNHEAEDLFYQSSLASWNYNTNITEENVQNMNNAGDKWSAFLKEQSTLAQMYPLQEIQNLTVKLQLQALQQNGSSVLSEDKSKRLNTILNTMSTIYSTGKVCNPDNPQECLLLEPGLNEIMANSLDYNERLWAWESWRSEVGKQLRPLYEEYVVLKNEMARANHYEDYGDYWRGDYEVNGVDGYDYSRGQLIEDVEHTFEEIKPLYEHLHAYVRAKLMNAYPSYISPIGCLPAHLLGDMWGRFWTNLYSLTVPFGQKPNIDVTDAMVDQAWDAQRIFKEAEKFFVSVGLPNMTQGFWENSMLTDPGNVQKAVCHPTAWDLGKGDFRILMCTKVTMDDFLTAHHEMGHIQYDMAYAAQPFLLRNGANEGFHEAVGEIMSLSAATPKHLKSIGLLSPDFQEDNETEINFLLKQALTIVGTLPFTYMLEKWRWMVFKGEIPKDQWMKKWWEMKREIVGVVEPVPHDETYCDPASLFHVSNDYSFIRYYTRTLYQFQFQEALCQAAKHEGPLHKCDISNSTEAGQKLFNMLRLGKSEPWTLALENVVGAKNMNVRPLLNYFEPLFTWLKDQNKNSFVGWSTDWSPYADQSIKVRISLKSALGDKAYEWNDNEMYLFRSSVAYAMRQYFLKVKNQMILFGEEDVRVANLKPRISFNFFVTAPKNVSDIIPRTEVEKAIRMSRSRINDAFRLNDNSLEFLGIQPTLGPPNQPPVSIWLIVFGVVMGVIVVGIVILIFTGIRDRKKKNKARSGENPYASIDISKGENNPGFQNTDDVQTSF

Staphylococcus aureus = assay: Antibacterial activity against Staphylococcus aureus ATCC 29213 assessed as inhibition of bacterial growth incubated for 18 hrs by Kirby-Bauer disk diffusion method; type: functional
MCF7 = assay: Cytotoxicity against human MCF7 cells assessed as reduction in cell viability by MTT assay; type: functional, cell-based
HepG2 = assay: Cytotoxicity against human HepG2 cells assessed as reduction in cell viability by MTT assay; type: functional, cell-based
Bacillus subtilis = assay: Antibacterial activity against Bacillus subtilis ATCC 6633 assessed as inhibition of bacterial growth incubated for 18 hrs by Kirby-Bauer disk diffusion method; type: functional
[3] = Binding affinity to Fe3+ assessed as formation of Fe3+-compound complex coordinate ratio of 1:1 measured under neutral pH by UV-visible spectrophotometric titration analysis

For `CCCCCCCCCCCC(=O)N[C@@H](CCCN(O)C=O)C(=O)N[C@@H](CO)C(=O)N(O)CCC[C@@H]1NC(=O)[C@H](CCCN(O)C=O)NC1=O`, the pIC50 (A549) was 4.96, the pIC50 (HCT-116) was 4.96 and the Activity [1] was “Active”. The MIC (Pseudomonas aeruginosa) was over 100 µM, the MIC (Escherichia coli) was over 100 µM and the inhibition [2] was “inactive”. It also gave an MIC (Staphylococcus aureus) of over 100 µM, a pIC50 (MCF7) of 4.77 and a pIC50 (HepG2) of under 4.70. The MIC (Bacillus subtilis) was over 100 µM.
With `COc1cccc2c1C(=O)c1c(O)c3c(c(O)c1C2=O)C[C@@](O)(C(=O)CO)C[C@@H]3O[C@H]1C[C@H](N)[C@H](O)[C@H](C)O1` [DOXORUBICIN] the pIC50 (A549) was 6.05, the pIC50 (HCT-116) was 5.96 and the pIC50 (HepG2) was 5.89.
For `CCCCCCCCCCCCC(=O)N[C@@H](CCCN(O)C=O)C(=O)N[C@@H](CO)C(=O)N(O)CCC[C@@H]1NC(=O)[C@H](CCCN(O)C=O)NC1=O`, the pIC50 (A549) was 5.47, the pIC50 (HCT-116) was 5.00 and the Activity [1] was “Active”. The MIC (Pseudomonas aeruginosa) was over 100 µM, the MIC (Escherichia coli) was over 100 µM and the inhibition [2] was “inactive”. The MIC (Staphylococcus aureus) was over 100 µM, the pIC50 (MCF7) was under 4.70 and the pIC50 (HepG2) was 5.00. It also gave an MIC (Bacillus subtilis) of over 100 µM.
In the case of `CC(C)CCCCCCCCCC(=O)N[C@@H](CCCN(O)C=O)C(=O)N[C@@H](CO)C(=O)N(O)CCC[C@@H]1NC(=O)[C@H](CCCN(O)C=O)NC1=O`, the pIC50 (A549) was under 4.70, the pIC50 (HCT-116) was under 4.70 and the Activity [3] was “Active”. The Activity [1] was “Active”, the MIC (Pseudomonas aeruginosa) was over 100 µM and the MIC (Escherichia coli) was over 100 µM. For the same molecule, the inhibition [2] was “inactive”, the MIC (Staphylococcus aureus) was over 100 µM and the pIC50 (MCF7) was under 4.70. The pIC50 (HepG2) was 5.11 and the MIC (Bacillus subtilis) was over 100 µM.
`CC(C)CCCCCCCCC(=O)N[C@@H](CCCN(O)C=O)C(=O)N[C@@H](CO)C(=O)N(O)CCC[C@@H]1NC(=O)[C@H](CCCN(O)C=O)NC1=O` gave a pIC50 (A549) of 4.89, a pIC50 (HCT-116) of 5.01 and an MIC (Pseudomonas aeruginosa) of over 100 µM. The MIC (Escherichia coli) was over 100 µM, the inhibition [2] was “inactive” and the MIC (Staphylococcus aureus) was over 100 µM. For the same molecule, the pIC50 (MCF7) was under 4.70, the pIC50 (HepG2) was under 4.70 and the MIC (Bacillus subtilis) was over 100 µM.
With `CC(C)CCCCCCCCCCC(=O)N[C@@H](CCCN(O)C=O)C(=O)N[C@@H](CO)C(=O)N(O)CCC[C@@H]1NC(=O)[C@H](CCCN(O)C=O)NC1=O` the pIC50 (A549) was 4.85, the pIC50 (HCT-116) was under 4.70 and the Activity [1] was “Active”. The MIC (Pseudomonas aeruginosa) was over 100 µM, the MIC (Escherichia coli) was over 100 µM and the inhibition [2] was “inactive”. The MIC (Staphylococcus aureus) was over 100 µM, the pIC50 (MCF7) was under 4.70 and the pIC50 (HepG2) was under 4.70. The MIC (Bacillus subtilis) was over 100 µM.
Work on `CCCCCCCCCCCCCCC(=O)N[C@@H](CCCN(O)C=O)C(=O)N[C@@H](CO)C(=O)N(O)CCC[C@@H]1NC(=O)[C@H](CCCN(O)C=O)NC1=O` yielded a pIC50 (A549) of 5.48, a pIC50 (HCT-116) of 5.32 and an MIC (Pseudomonas aeruginosa) of over 100 µM. For the same molecule, the MIC (Escherichia coli) was over 100 µM, the inhibition [2] was “inactive” and the MIC (Staphylococcus aureus) was over 100 µM. It also gave a pIC50 (MCF7) of 5.23, a pIC50 (HepG2) of 5.37 and an MIC (Bacillus subtilis) of over 100 µM.
For `CC(=O)N(O)CCCCCNC(=O)CCC(=O)N(O)CCCCCNC(=O)CCC(=O)N(O)CCCCCN`, the Activity [1] was “Active”.
For `CC(C)CCCCCCCCCCCC(=O)N[C@@H](CCCN(O)C=O)C(=O)N[C@@H](CO)C(=O)N(O)CCC[C@@H]1NC(=O)[C@H](CCCN(O)C=O)NC1=O`, the pIC50 (A549) was 5.09, the pIC50 (HCT-116) was under 4.70 and the Activity [1] was “Active”. For the same molecule, the MIC (Pseudomonas aeruginosa) was over 100 µM, the MIC (Escherichia coli) was over 100 µM and the inhibition [2] was “inactive”. It also gave an MIC (Staphylococcus aureus) of over 100 µM, a pIC50 (MCF7) of under 4.70 and a pIC50 (HepG2) of 5.64. The MIC (Bacillus subtilis) was over 100 µM.
`CCCCCCCCCCCCCC(=O)N[C@@H](CCCN(O)C=O)C(=O)N[C@@H](CO)C(=O)N(O)CCC[C@@H]1NC(=O)[C@H](CCCN(O)C=O)NC1=O` gave a pIC50 (A549) of under 4.70, a pIC50 (HCT-116) of under 4.70 and an MIC (Pseudomonas aeruginosa) of over 100 µM. For the same molecule, the MIC (Escherichia coli) was over 100 µM, the inhibition [2] was “inactive” and the MIC (Staphylococcus aureus) was over 100 µM. For the same molecule, the pIC50 (MCF7) was under 4.70, the pIC50 (HepG2) was under 4.70 and the MIC (Bacillus subtilis) was over 100 µM.
